Data on 1 compound can be found in patent US20060111305A1, “Metabolites of certain [1,4]diazepino[6,7,1-ij]quinoline derivatives and methods of preparation and use thereof” (Wyeth, priority 2004, published 2006).

The nature of data set [1]: Metabolites of DCDQ identified in rats by LC/MS analysis (Table 18). The data set is classed as in vivo, Sprague-Dawley rats. To be noted: P = plasma, U = urine, B = brain, F = feces.
Data set [2] can be described thus: Dog plasma metabolite profiles after single 15 mg/kg oral capsule of [14C]DCDQ. It is filed as in vivo, beagle dogs. To be noted: for concentration at 4 h / concentration at 24 h: male, beagle, dog, plasma, oral, 15 mg/kg, read-out: Estimated plasma concentration in dogs. Here is the method: (§1) For plasma profiles, a TopCount NXT radiometric microplate reader (Perkin Elmer) was used to analyze the radioactivity in collected HPLC fractions. The limit of detection by TopCount was about 1 ng equivalent/mL. A Flo-One β Model A525 radioactivity detector (Perkin Elmer) with a 250 μL LQTR flow cell was used to acquire data for urine and fecal samples. The flow rate of Ultima Flow M scintillation fluid was 1 mL/min, providing a mixing ratio of scintillation cocktail to mobile phase of 5:1. The limits of detection by Flo-One detector were about 200 ng equivalents/mL for urine and 12 ng equivalents/g for feces.
Plasma samples were analyzed for metabolite profiles by HPLC. Aliquots of plasma were mixed with two volumes of cold methanol containing 0.1% trifluoroacetic acid (TFA), placed on ice for about 2 minutes and then centrifuged. The supernatant fluid was transferred to a clean tube and evaporated at 22° C. under nitrogen in a Zymark TurboVap LV (Caliper Life Sciences, Hopkinton, Mass.) to a volume of about 0.3 mL. The residue was centrifuged, the supernatant volume measured and extraction efficiency determined by analysis of duplicate 20 μL aliquots for radioactivity. A 200 μL aliquot of the supernatant was injected onto the HPLC column and the effluent was collected at 20 second intervals into 96-well Lumaplates (Perkin Elmer). The plates were dried overnight in an oven at 40° C. and analyzed by a TopCount. Plasma extracts were also analyzed by LC/MS.
(§2) A Waters model 2690 HPLC system (Waters Corp., Milford, Mass.) with a built-in autosampler was used for analysis. Separations were accomplished on a Phenomenex Luna C18(2) column (150×2.0 mm, 5 μm) (Phenomenex, Torrance, Calif.). The sample chamber of the autosampler was maintained at 4° C., while the column was at ambient temperature of about 20° C. A variable wavelength UV detector set to monitor 250 nm and a Flo-One β Model A525 radioactivity detector were used for data acquisition. The HPLC mobile phase consisted of 10 mM ammonium acetate, pH 4.5 (A) and acetonitrile (B), and was delivered at 0.2 mL/min. Chromatographic condition A was used for dose analysis, while condition B was used for analysis of urine and plasma, brain and fecal extracts.

The nature of data set [3]: Dog urinary excretion and metabolite profiles after oral capsule of [14C]DCDQ. To be noted: 24-48 hr. The data set is classed as in vivo, beagle dogs. The procedure:
Blood samples were collected from the jugular vein at 2, 4, 8, 24 and 48 hour after dose administration into tubes containing potassium EDTA as the anticoagulant and then placed on ice. Aliquots of 50 μL were removed for combustion and determination of radioactivity content. Plasma was immediately obtained from the remaining blood by centrifugation at 4° C. Urine samples were collected into tubes on dry ice at intervals of 0-8, 8-24 and 24-48 hour post-dose. Fecal samples were collected at intervals of 0-8, 8-24 and 24-48 hour post-dose at room temperature, and were homogenized. The biological specimens were stored at approximately −70° C. until analysis.
as §1
Urine was analyzed for radioactivity concentration and analyzed by HPLC with radioactivity flow detection for metabolite profiles by direct injection to the HPLC column. LC/MS analyses for metabolite identification were also carried out with urine samples.
as §2

The nature of data set [4]: Metabolites of DCDQ identified in dogs by LC/MS analysis (Table 26). The data set is classed as in vivo, beagle dogs. As to conditions: P = plasma, U = urine, B = brain, F = feces. From the text: An Agilent Model 1100 HPLC system (Agilent Technologies, Palo Alto, Calif.) including an autosampler and diode array UV detector was used for LC/MS analysis. The UV detector was set to monitor 200 to 400 nm. For selected LC/MS analysis, radiochromatograms were acquired using a β-Ram model 3 radioactivity flow detector (IN/US Systems Inc., Tampa, Fla.) equipped with a solid scintillant flow cell. LC conditions were the same as the condition B described above.
The mass spectrometer used for metabolite characterization was a Micromass Q-TOF-2 quadrupole time-of-flight hybrid mass spectrometer (Waters). The mass spectrometer was equipped with an electrospray ionization (ESI) interface and operated in the positive ionization mode. Collision energy settings of 5 and 30 eV were used for full MS and MS/MS scans, respectively. Settings for the mass spectrometer are listed below.

Like-named read-outs stand apart in the source and are kept apart here.

As to `O=C1CC[C@@H]2c3cccc4c3N(CCNC4)C[C@H]12` [Metabolite M7, 17-keto DCDQ], the Matrix result was “P, U, B” in data set [1] and “P, U” in data set [4]. Moreover, the “Estimated plasma concentration in dogs” value is given as “BQL” in data set [2] (2 hr, dog 1); “BQL” in data set [2] (2 hr, dog 2); “BQL” in data set [2] (8 hr, dog 1); “BQL” in data set [2] (8 hr, dog 2); “BQL” in data set [2] (8 hr, dog 3); “BQL” in data set [2] (24 hr, dog 3). In addition, the “Estimated plasma concentration in dogs” value in data set [2] (48 hr, dog 1) was “BQL”; in data set [2] (48 hr, dog 2), “BQL”; in data set [2] (48 hr, dog 3) it was “BQL”. The “Chromatographic distribution of radioactivity in dog plasma” value turned out to be 6.9% in data set [2] (4 hr, dog 1); 7.8% in data set [2] (4 hr, dog 2); 13% in data set [2] (24 hr, dog 1); 6.7% in data set [2] (24 hr, dog 2). Moreover, the concentration at 4 h in data set [2] (4 hr, dog 1) is 0.0345 µg/mL; in data set [2] (4 hr, dog 2) it was 0.127 µg/mL. The concentration at 24 h is 0.202 µg/mL in data set [2] (24 hr, dog 1) and 0.0736 µg/mL in data set [2] (24 hr, dog 2). For the same compound, the “Chromatographic distribution of radioactivity in dog urine” value in data set [3] (Mean) came to 5.9%; in data set [3] (dog 1), 5.0%; in data set [3] (dog 2), 6.2%; in data set [3] (dog 3), 9.2%; in data set [3] (dog 4), 3.4%.
